# Measured values from patent US9101603B2, “Targeting of CYP1B1 in the treatment of head and neck cancer and lung cancer” (Institute for Cancer Research, priority 2010, dated 2015).
# Experiments:
# Type in all cases: cell-based
# MSK-Leuk1 cells [1] = assay: Apoptosis assay (Guava Nexin kit, annexin V positive cells); conditions: 72 h; for decrease of apoptosis by exposure to E2: 1 nM E2; for effect on the E2-mediated decrease in apoptosis: fulvestrant 1 μM added to 1 nM E2
# Protocol: (§1) For all the experiments that involved estradiol (E2) exposure, MSK-Leuk1 cells were cultured in phenol red-free and serum-free DermaLife® K Medium (Lifeline Cell Technology, Walkersville, Md.). SCC cells were cultured in their respective media with no phenol red, supplemented with charcoal-stripped serum (Gibco, Carlsbad, Calif.). Cells were incubated for 48 h to remove endogenous estrogens and then plated at 70% confluence. After 24 h, the medium was replaced with either control medium containing vehicle (0.01% ethanol) or medium supplemented with 1 nM E2 (Sigma-Aldrich, St. Louis, Mo.). Cells were harvested after the appropriate treatment period and analyzed.
# Apoptosis assay. Apoptosis was assessed using the Guava Nexin kit (Millipore, Billerica, Mass.). Fifty thousand cells were plated per well in 6-well plates. After the appropriate treatment, floating cells were collected, combined with attached cells following trypsinization, and resuspended in DermaLife® K Medium (Lifeline Cell Technology, Walkersville, Md.) supplemented with 5% FBS. The cell suspension (100 μl) was incubated with 100 μl of Guava® Nexin Reagent for 20 min, according to the manufacturer's instructions. Two thousand cells were analyzed from each sample using the Guava® EasyCyte™ system, and the resulting data were expressed as a percentage of apoptotic cells (annexin V positive cells/total number of cells counted).
# MSK-Leuk1 cells [2] = assay: Cell proliferation (total DNA content, Fluorescent DNA Quantitation kit); conditions: vector-expressing cells; 1 nM E2; 72 h; not statistically significant
# Protocol: as §1
# Cell proliferation. Fifty thousand cells/well were plated in 6-well plates. After the appropriate treatment, the DNA content of the cells, an indirect measure of proliferation, was determined using a Fluorescent DNA Quantitation kit (Bio-Rad Laboratories, Hercules, Calif.). In brief, cells were harvested, sonicated in 0.1×TEN assay buffer (Bio-Rad Laboratories) for 5 s, and incubated with a Hoechst dye mixture (BioRad Laboratories) for 1 h. Total DNA was measured using Fluoroscan Ascent FL (Thermo Fisher Scientific, Waltham, Mass.) at an excitation wavelength of 360 nm and an emission wavelength of 460 nm.
# MSK-Leuk1 cells [3] = assay: Cell motility assay (scratch gap closure, 16 h), vector- or CYP1B1 shRNA-expressing cells; conditions: 1 nM E2, vector- and CYP1B1 shRNA-expressing MSK-Leuk1 cells
# Protocol: as §1
# Cell motility assay. MSK-Leuk1 cells, expressing either vector or CYP1B1 shRNA, were cultured in phenol red-free and serum-free medium for 48 h and then plated at 70% confluence. After 24 h, the cells were treated with either vehicle or E2 (1 nM) in triplicate, as described above. […] The area devoid of cells was measured on every image using MetaMorph 7.0 (Molecular Devices, Inc., Sunnyvale, Calif.). The gap closure percentages were calculated as (area at 0 h−area at 16 h)/(area at 0 h).
# In addition, a time-lapse movie capturing the process of gap closure in vector-expressing MSK-Leuk1 cells was obtained. […] The percentage of proliferating cells (those rounded up for cell division) was counted in this representative area.
SMILES,"decrease of apoptosis by exposure to E2 (MSK-Leuk1 cells [1]; CYP1B1 shRNA-expressing cells, P=0.015)","decrease of apoptosis by exposure to E2 (MSK-Leuk1 cells [1]; vector-expressing cells, P=0.030)",induction of cell proliferation by E2 exposure (MSK-Leuk1 cells [2]),effect of E2 treatment on motility (MSK-Leuk1 cells [3]),effect on the E2-mediated decrease in apoptosis (MSK-Leuk1 cells [1]),effect on the E2-mediated decrease in apoptosis (MSK-Leuk1 cells [1]; listed as Fulvestrant)
"C[C@]12CC[C@@H]3c4ccc(O)cc4CC[C@H]3[C@@H]1CC[C@@H]2O [E2, 17β-estradiol]",30.1%,25.5%,10%,not affected,,
C[C@]12CC[C@@H]3c4ccc(O)cc4C[C@@H](CCCCCCCCC[S+]([O-])CCCC(F)(F)C(F)(F)F)[C@H]3[C@@H]1CC[C@@H]2O (stereo partly drawn) [fulvestrant],,,,,restored,restores
